Patent publication US20260337153A1, “IONIZABLE AMINE LIPIDS” (Intellia Therapeutics, Inc., priority 2023, published 2026)

Assay: LNP encapsulation efficiency of RNA (Ribogreen fluorescence assay)
Type: physicochemical
Conditions: sgRNA:mRNA 1:2
Method: LNP compositions are analyzed for average particle size, polydispersity index (pdi), total RNA content, encapsulation efficiency of RNA, and zeta potential. LNP compositions may be further characterized by lipid analysis, AF4-MALS, NTA, and/or cryo-EM.
Encapsulation efficiency is calculated as (Total RNA−Free RNA)/Total RNA. A fluorescence-based assay (Ribogreen®, ThermoFisher Scientific) is used to determine total RNA concentration and free RNA. LNP samples are diluted appropriately with 1×TE buffer containing 0.2% Triton-X 100 to determine total RNA or 1×TE buffer to determine free RNA. Standard curves are prepared by utilizing the starting RNA solution used to make the compositions and diluted in 1×TE buffer+/−0.2% Triton-X 100. Diluted RiboGreen® dye (according to the manufacturer's instructions) is then added to each of the standards and samples and allowed to incubate for approximately 10 minutes at room temperature, in the absence of light. A SpectraMax M5 Microplate Reader (Molecular Devices) is used to read the samples with excitation, auto cutoff and emission wavelengths set to 488 nm, 515 nm, and 525 nm respectively. Total RNA and free RNA are determined from the appropriate standard curves. Alternatively, the total RNA concentration can be determined by a reverse-phase ion-pairing (RP-IP) HPLC method. Triton X-100 is used to disrupt the LNPs, releasing the RNA. The RNA is then separated from the lipid components chromatographically by RP-IP HPLC and quantified against a standard curve using UV absorbance at 260 nm.
In vivo editing efficiency for materials delivered with formulations including various amine lipid (or ionizable lipid) compounds in Experiments 1 through 14 as described in Tables 3 and 4 was assessed. Editing was measured using G000534 (SEQ ID NO: 5) which targets the rat TTR gene. Lipids described above were assessed for efficacy through in vivo editing experiments. LNPs were formulated at a 1:2 w/w ratio of sgRNA (SEQ ID NO: 5) and Cas9 mRNA (SEQ ID NO: 3). In Experiments 1 through 13, lipid components of the LNP are formulated in a molar ratio of 50% ionizable lipid, 38% cholesterol, 9% DSPC, and 3% PEG2K-DMG. In Experiment 14, lipid components of the LNP are formulated in a molar ratio of 50% ionizable lipid, 38% cholesterol, 9% DSPC, and 3% C13 Ether. The final LNPs used in different in vivo editing experiments were characterized to determine the encapsulation efficiency (% E), polydispersity index (PDI), and average particle size (Z-avg and number mean) according to the analytical methods provided above. The pKa values of each of the following ionizable lipids were also measured to be in the range of about 5.8 to about 7.6.
In vivo editing efficiency for materials delivered with formulations including various combinations of amine lipid (or ionizable lipid) and PEG lipid compounds was assessed as described in Tables 5 and 6. Editing was measured using G000534 (SEQ ID NO: 5) which targets the rat TTR gene. Lipids described above were assessed for efficacy through in vivo editing experiments. LNPs were formulated at a 1:2 w/w ratio of sgRNA (SEQ ID NO: 5) and Cas9 mRNA (SEQ ID NO:3). Lipid components of the LNP are formulated in a molar ratio of 50% ionizable lipid, 38% cholesterol, 9% DSPC, and 3% of various PEG lipids (e.g., PEG2K-DMG, C13 Ether, C14 Ether). The final LNPs used in different in vivo editing experiments were characterized to determine the encapsulation efficiency (% E), polydispersity index (PDI), and average particle size (Z-avg and number mean) according to the analytical methods provided above. The pKa values of each of the following ionizable lipids were also measured to be in the range of about 5.8 to about 7.6.
In vivo editing efficiency for materials delivered with formulations including various amine lipid (or ionizable lipid) compounds as described in Tables 7 and 8 was assessed. […]

[1] = Table 3, Experiments 1-13, LNP 50% ionizable lipid, 38% cholesterol, 9% DSPC, 3% PEG2K-DMG

| SMILES | % E (encapsulation efficiency) [1] | also measured |
| --- | --- | --- |
| CCCCCCCCOC(CCC(=O)OCC(COC(=O)CCC(OCCCCCCCC)OCCCCCCCC)COC(=O)OCCCN(CC)CC)OCCCCCCCC [Compound 1, 2-((((3-(diethylamino)propoxy)carbonyl)oxy)methyl)propane-1,3-diyl bis(4,4-bis(octyloxy)butanoate)] | 98% |  |
| CCCCCCCCC(CCCCCCCC)OC(=O)CCCC(=O)OCC(COC(=O)CCCC(=O)OC(CCCCCCCC)CCCCCCCC)COC(=O)NCCN(CC)CC [Compound 6, O,O′-(2-((((2-(diethylamino)ethyl)carbamoyl)oxy)methyl)propane-1,3-diyl) di(heptadecan-9-yl) diglutarate] | 99% | % E (encapsulation efficiency) (LNP with 50% ionizable lipid, 38% cholesterol, 9% DSPC, 3% C13 Ether (LNP #1, Compound 53: 3% PEG2K-DMG instead)): 99%; % E (encapsulation efficiency) (Table 3, Experiment 14, LNP with 3% C13 Ether): 98%; % E (encapsulation efficiency) (Table 5, PEG lipid C13 Ether): 97%; % E (encapsulation efficiency) (Table 5, PEG lipid C14 Ether): 98%; % E (encapsulation efficiency) (Table 5, PEG lipid PEG2K-DMG): 97%; % E (encapsulation efficiency) (Table 7, LNP with 3% C13 Ether): 98% |
| CCCCC/C=C\C/C=C\CCCCCCCC(=O)OCC(CCCCCCCCC(=O)OCC(CCCC)CCCCCC)COC(=O)OCCCN(CC)CC (stereo not shown) [Compound 7, 11-((2-butyloctyl)oxy)-2-((((3-(diethylamino)propoxy)carbonyl)oxy)methyl)-11-oxoundecyl (9Z,12Z)-octadeca-9,12-dienoate] | 98% |  |
| CCCCCCCCC(CCCCCCCC)OC(=O)CCCCCCC(COC(=O)CCCC(=O)OC(CCCCCCCC)CCCCCCCC)COC(=O)OCCCN(CC)CC (stereo not shown) [Compound 8, 2-((((3-(diethylamino)propoxy)carbonyl)oxy)methyl)-9-(heptadecan-9-yloxy)-9-oxononyl heptadecan-9-yl glutarate] | 98% |  |
| CCCCC/C=C\C/C=C\CCCCCCCC(=O)OCC(CCCCCCCCC(=O)OC(CCCCCCCC)CCCCCCCC)COC(=O)OCCCN(CC)CC (stereo not shown) [Compound 9, 2-((((3-(diethylamino)propoxy)carbonyl)oxy)methyl)-11-(heptadecan-9-yloxy)-11-oxoundecyl (9Z,12Z)-octadeca-9,12-dienoate] | 99% |  |
| CCCCC/C=C\C/C=C\CCCCCCCC(=O)OCC(CCCCCCCCC(=O)OC(CCCCCCCC)CCCCCCCC)COC(=O)NCCN(CC)CC (stereo not shown) [Compound 10, 2-((((2-(diethylamino)ethyl)carbamoyl)oxy)methyl)-11-(heptadecan-9-yloxy)-11-oxoundecyl (9Z,12Z)-octadeca-9,12-dienoate] | 97% |  |
| CCCCC/C=C\C/C=C\CCCCCCCC(=O)OCC(CCCCCCCCC(=O)OC(CCCCCCCC)CCCCCCCC)COC(=O)OCCCN(C)CC (stereo not shown) [Compound 11, 2-((((3-(ethyl(methyl)amino)propoxy)carbonyl)oxy)methyl)-11-(heptadecan-9-yloxy)-11-oxoundecyl (9Z,12Z)-octadeca-9,12-dienoate] | 99% |  |
| CCCCC/C=C\C/C=C\CCCCCCCC(=O)OCC(CCCCC(=O)OC(CCCC)CCCC)COC(=O)NCCN(CC)CC (stereo not shown) [Compound 12, 2-((((2-(diethylamino)ethyl)carbamoyl)oxy)methyl)-7-(nonan-5-yloxy)-7-oxoheptyl (9Z,12Z)-octadeca-9,12-dienoate] | 96% |  |
| CCCCC/C=C\C/C=C\CCCCCCCC(=O)OCC(CCCCC(=O)OC(CCCC)CCCC)COC(=O)OCCCN(C)CC (stereo not shown) [Compound 13, 2-((((3-(ethyl(methyl)amino)propoxy)carbonyl)oxy)methyl)-7-(nonan-5-yloxy)-7-oxoheptyl (9Z,12Z)-octadeca-9,12-dienoate] | 98% |  |
| CCCCC/C=C\C/C=C\CCCCCCCC(=O)OCC(CCCCC(=O)OC(CCCC)CCCC)COC(=O)OCCCN(CC)CC (stereo not shown) [Compound 14, 2-((((3-(diethylamino)propoxy)carbonyl)oxy)methyl)-7-(nonan-5-yloxy)-7-oxoheptyl (9Z,12Z)-octadeca-9,12-dienoate] | 96% |  |
